Experimental data as given in paper PMC3678512, “Synthesis and physicochemical characterization of novel phenotypic probes targeting the nuclear factor-kappa B signaling pathway” (Beilstein Journal of Organic Chemistry, 2013).
Values after ≈ are worked out from the molar mass of the structure shown. Read-outs that look alike come from different tables or passages of the source.

Tests used:
[1] = test system: 353 kinases; assay: KINOMEscan (DiscoveRx) selectivity profiling, panel; assay type: binding; details: 10 uM; out of the 353 kinases surveyed
Excerpt: (§1) This probe was discovered after two separate screening campaigns totaling ~110,000 compounds.

[2] = target: T1, TLK1 (Homo sapiens, UniProt Q9UKI8); assay: KINOMEscan (DiscoveRx) selectivity profiling, TLK1; assay type: binding
T1 construct: purchased DiscoveRx
T1 sequence (Q9UKI8 1-766): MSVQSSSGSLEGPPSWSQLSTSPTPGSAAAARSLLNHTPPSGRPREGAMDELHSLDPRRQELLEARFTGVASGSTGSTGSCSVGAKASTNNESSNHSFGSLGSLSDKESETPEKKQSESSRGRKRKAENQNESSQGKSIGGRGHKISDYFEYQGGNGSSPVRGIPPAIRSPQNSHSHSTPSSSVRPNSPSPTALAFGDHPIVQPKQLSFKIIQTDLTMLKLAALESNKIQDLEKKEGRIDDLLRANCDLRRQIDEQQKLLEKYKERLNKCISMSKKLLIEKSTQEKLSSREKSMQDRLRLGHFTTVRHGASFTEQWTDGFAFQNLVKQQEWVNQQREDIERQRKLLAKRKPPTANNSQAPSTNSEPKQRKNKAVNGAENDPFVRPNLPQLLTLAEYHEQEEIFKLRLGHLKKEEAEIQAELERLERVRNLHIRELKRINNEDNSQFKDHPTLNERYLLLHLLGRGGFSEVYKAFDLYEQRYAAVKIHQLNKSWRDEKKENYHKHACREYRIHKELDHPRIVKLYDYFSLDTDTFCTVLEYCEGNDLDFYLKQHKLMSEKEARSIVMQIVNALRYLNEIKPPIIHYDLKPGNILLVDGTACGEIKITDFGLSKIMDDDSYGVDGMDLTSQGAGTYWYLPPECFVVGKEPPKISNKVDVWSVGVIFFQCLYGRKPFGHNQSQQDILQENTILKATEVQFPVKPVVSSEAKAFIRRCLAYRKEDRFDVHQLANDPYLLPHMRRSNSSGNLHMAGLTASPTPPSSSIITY
Excerpt: as §1

[3] = test system: Raf; assay: KINOMEscan (DiscoveRx) selectivity profiling, Raf; assay type: binding; details: 10 uM
Excerpt: as §1

[4] = target: T2, JAK2 (Homo sapiens, UniProt O60674); assay: KINOMEscan (DiscoveRx) selectivity profiling, JAK2; assay type: binding
T2 construct: purchased DiscoveRx
T2 sequence (O60674 whole entry): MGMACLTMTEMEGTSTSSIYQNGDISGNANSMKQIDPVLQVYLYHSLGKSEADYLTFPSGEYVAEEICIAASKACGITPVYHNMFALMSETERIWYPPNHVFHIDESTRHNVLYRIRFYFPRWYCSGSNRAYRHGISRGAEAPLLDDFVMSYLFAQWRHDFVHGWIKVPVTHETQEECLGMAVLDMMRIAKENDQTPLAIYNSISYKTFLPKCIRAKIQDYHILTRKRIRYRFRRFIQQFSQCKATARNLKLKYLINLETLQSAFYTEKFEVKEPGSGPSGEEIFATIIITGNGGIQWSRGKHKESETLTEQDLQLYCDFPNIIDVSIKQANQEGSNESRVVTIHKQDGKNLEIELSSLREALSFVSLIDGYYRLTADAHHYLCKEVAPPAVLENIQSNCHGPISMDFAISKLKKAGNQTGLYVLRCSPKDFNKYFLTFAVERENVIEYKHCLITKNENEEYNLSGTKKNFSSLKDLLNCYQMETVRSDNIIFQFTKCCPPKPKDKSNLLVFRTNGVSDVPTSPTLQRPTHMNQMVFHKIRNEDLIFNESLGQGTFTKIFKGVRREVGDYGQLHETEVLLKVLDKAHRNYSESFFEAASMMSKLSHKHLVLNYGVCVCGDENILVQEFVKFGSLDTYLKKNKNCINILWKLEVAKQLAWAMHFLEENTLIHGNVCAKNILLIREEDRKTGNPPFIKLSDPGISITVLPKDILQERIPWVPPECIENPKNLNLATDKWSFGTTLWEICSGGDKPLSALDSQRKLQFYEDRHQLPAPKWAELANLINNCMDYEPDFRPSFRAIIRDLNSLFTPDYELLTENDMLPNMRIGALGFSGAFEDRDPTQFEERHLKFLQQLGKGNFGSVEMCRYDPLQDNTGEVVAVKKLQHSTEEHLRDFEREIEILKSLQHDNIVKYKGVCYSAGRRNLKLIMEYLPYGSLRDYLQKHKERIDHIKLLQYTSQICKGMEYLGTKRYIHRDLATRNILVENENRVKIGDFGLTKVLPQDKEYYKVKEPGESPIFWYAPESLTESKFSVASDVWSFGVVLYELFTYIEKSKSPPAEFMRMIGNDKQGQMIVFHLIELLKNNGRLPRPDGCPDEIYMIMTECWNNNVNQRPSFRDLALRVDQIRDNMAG
Excerpt: as §1

[5] = test system: NF-κB activation in HEK 293T cells; assay: NF-κB reporter gene assay in HEK 293T cells; assay type: cell-based, human; details: Homo sapiens; HEK 293T cells; read-out: Activity in HEK 293T cell line (NF-κB reporter)
Excerpt: (§2) Phenotypic screening for noncanonical NF-κB pathway selective inhibitors of IL-8 production in HEK 293, HEK 293T (ML029) and 697 pre-B cells (ML236 and ML237): Most pathways for NF-κB activation converge on the IκB kinases (IKKs), and more than nine signaling routes have been identified. While IKKs therefore represent attractive targets for drug discovery programs, the selectivity envisioned for an acceptable therapeutic index has remained elusive as inhibitors of IKKs indiscriminately suppress all known NF-κB activation pathways. Within this project, new probes were sought that were not active via the currently known receptor-driven pathways and IκB kinases, but attenuated NF-κB transcriptional activity as measured by a luciferase-based reporter gene assay with validation using a panel of known receptor and kinase-based counter screens.
(§3) Therefore, an HTS campaign was initiated to identify compounds active in these specific cell subtypes by using the established HTS NF-κB reporter gene assay format. This included screening of a larger (~330,600 compound) MLSMR collection to ensure identification of additional chemical scaffolds not previously available. From this campaign two new cell-active NF-κB inhibitors were derived that were both selective against the NF-κB pathway induced by known PKC activators (phorbol myristic acetate (PMA)/ionomycin) and were selective toward the 697 pre-B cell line. It is interesting to note that no compounds meeting probe selectivity criteria were identified within the T cell (HEK 293T) specific assay. The first oxadiazole-based probe ML236 (8) was potent (0.035 μM) in the 697 pre-B cell line and >400-fold selective over both the NF-κB activation in HEK 293T cells and against TNFα-mediated NF-κB activation. In comparison, the second oxazole-based probe 12 is also potent (0.2 μM) in the 697 pre-B cell line and >400-fold selective over both the NF-κB activation in HEK 293T cells and against TNFα mediated NF-κB activation as measured in our reporter gene assay format.

[6] = test system: NF-κB activation in 697 pre-B cell line; assay: NF-κB reporter gene assay in 697 pre-B cells (PMA/ionomycin induced); assay type: cell-based; details: read-out: Potency in 697 pre-B cell line (NF-κB reporter)
Excerpt: as §2, §3

[7] = Aqueous solubility; assay type: physicochemical; details: for Solubility (in words): across pH 5 to 7.4
Description: (§4) The probes were evaluated using known in vitro ADME/T assays to understand their overall pharmacological properties (Table 2). […] The PAMPA (parallel artificial membrane permeability assay) assay is used as an in vitro model of passive, transcellular permeability. An artificial membrane immobilized on a filter is placed between a donor and acceptor compartment. […] It is not yet known whether it represents a species specific CPY450 inhibitor.

[8] = PAMPA (parallel artificial membrane permeability assay); assay type: in vitro ADME; details: for PAMPA Pe, donor pH 5.0: donor pH 5.0, acceptor pH 7.4, compound at 50 μM; for PAMPA Pe, donor pH 6.2: donor pH 6.2, acceptor pH 7.4, compound at 50 μM; for PAMPA Pe, donor pH 7.4: donor pH 7.4, acceptor pH 7.4, compound at 50 μM
Description: as §4

[9] = Hepatic microsome stability, human; assay type: in vitro ADME; details: human, compound at 1 μM, 60 min
Description: as §4

[10] = Hepatic microsome stability, mouse; assay type: in vitro ADME; details: compound at 1 μM, 60 min
Description: as §4

[11] = Hepatic toxicity in immortalized human hepatocytes; assay type: cell-based; details: Fa2N-4 immortalized human hepatocytes, read-out: Hepatic toxicity LC50
Description: as §4

[12] = test system: NF-κB transcriptional activity in HEK 293 cells; set-up: method as in PMID 20481485; details: NF-κB reporter, read-out: IC50 in the HEK 293 cell assay; cited from earlier work
[13] = test system: PKCβ; set-up: method as in PMID 20481485, PMID 20153655; details: 4 at concentrations up to 8 μM; cited from earlier work
[14] = test system: PKCθ; set-up: method as in PMID 20481485, PMID 20153655; details: 4 at concentrations up to 8 μM; cited from earlier work
[15] = test system: IKKβ; set-up: method as in PMID 20481485, PMID 20153655; details: 4 at concentrations up to 8 μM; cited from earlier work
[16] = target: T3, NOD1 (Homo sapiens, UniProt Q9Y239); assay: γ-tri-DAP-stimulated luciferase production in HEK 293T cells (NF-κB-linked reporter assay); assay type: cell-based; details: HEK 293T cells with endogenous NOD1, NF-κB-linked reporter; read-out: IC50, inhibition of γ-tri-DAP-stimulated luciferase production
T3 construct: luciferase production in HEK 293T cells, which has endogenous NOD1 levels; endogenous in cells; host or cells: HEK 293T
T3 sequence (Q9Y239 1-953): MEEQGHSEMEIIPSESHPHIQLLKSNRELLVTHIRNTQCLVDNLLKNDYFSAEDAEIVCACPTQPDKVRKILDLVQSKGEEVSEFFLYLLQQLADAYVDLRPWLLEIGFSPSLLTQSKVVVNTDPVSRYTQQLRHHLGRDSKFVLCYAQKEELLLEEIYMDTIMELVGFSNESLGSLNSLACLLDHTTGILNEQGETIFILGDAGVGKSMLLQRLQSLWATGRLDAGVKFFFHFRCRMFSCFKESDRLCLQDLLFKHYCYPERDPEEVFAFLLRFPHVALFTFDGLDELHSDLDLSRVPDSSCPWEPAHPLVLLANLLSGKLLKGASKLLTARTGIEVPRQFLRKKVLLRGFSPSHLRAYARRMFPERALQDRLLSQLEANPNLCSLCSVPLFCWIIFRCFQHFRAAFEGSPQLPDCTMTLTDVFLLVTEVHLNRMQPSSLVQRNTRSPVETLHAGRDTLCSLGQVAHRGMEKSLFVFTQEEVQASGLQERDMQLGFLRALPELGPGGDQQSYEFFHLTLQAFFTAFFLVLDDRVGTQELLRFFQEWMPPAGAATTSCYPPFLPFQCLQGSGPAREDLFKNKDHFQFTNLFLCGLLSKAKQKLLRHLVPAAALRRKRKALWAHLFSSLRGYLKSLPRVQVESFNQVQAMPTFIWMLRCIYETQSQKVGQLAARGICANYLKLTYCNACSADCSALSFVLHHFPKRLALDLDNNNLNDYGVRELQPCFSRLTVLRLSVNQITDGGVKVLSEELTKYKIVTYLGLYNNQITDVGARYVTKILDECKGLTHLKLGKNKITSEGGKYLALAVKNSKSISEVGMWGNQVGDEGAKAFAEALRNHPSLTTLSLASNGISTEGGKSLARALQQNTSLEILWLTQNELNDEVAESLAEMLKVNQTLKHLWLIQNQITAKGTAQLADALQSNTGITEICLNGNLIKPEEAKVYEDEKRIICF

[17] = test system: NOD2; assay: MDP-stimulated signal transduction in NOD2 reporter cell lines; assay type: cell-based; details: reporter cell lines with low or overexpressed NOD2
[18] = test system: non-NOD-stimulated NF-κB pathways; assay: Non-NOD-stimulated NF-κB pathway reporter assays (TNF-α, doxorubicin, PMA/ionomycin); assay type: cell-based; details: doxorubicin and PMA/ionomycin reporter assays
[19] = test system: NOD1 (γ-tri-DAP) dependent IL-8 secretion; assay: NOD1 (γ-tri-DAP) dependent IL-8 secretion; assay type: cell-based
[20] = test system: NOD2-dependent IL-8 secretion in MCF-7 cells; assay: NOD2-dependent IL-8 secretion in MCF-7 cells; assay type: cell-based
[21] = test system: TNF-α-dependent IL-8 secretion in MCF-7 cells; assay: TNF-α-dependent IL-8 secretion in MCF-7 cells; assay type: cell-based
[22] = aqueous medium, pH 6.2, aqueous buffer, read-out: Aqueous solubility pH 6.2

In the case of `Cc1cc2nc(NCCCO)n(CC(=O)c3cc(C(C)(C)C)c(O)c(C(C)(C)C)c3)c2cc1C` [Probe 4], the “Number of kinases inhibited >50%” value [1] is reported as 3, the inhibition at 10 µM [2] is reported as 70% and the Raf inhibition [3] is reported as 57%. For the same compound, the inhibition at 10 µM [4] was 53%, the IC50 [5] was > 30 µM and the IC50 [6] was > 30 µM. The “Solubility (in words)” value [7] was “good solubility”, the solubility [7, 22] was 1.1 µM (≈ 0.512 µg/mL) and the solubility ([7]; pH 5.0, read-out: Aqueous solubility pH 5.0) was 90 µM (≈ 41.9 µg/mL). For the same compound, the solubility ([7]; pH 7.4, read-out: Aqueous solubility pH 7.4) was 1.5 µM (≈ 0.698 µg/mL), the “PAMPA Pe, donor pH 5.0” value [8] was 299 10^−6 cm/s and the “PAMPA Pe, donor pH 6.2” value [8] was 710 10^−6 cm/s. The “PAMPA Pe, donor pH 7.4” value [8] was 441 10^−6 cm/s, the “Hepatic microsome stability, human (% remaining)” value [9] was 26 % remaining and the “Hepatic microsome stability, mouse (% remaining)” value [10] was 0.5 % remaining. The CC50 [11] was > 50 µM, the IC50 [12] was 0.07 µM and the “Suppression of PKCβ” value [13] was “failed to suppress”. The “Suppression of PKCθ” value [14] was “failed to suppress” and the “Suppression of IKKβ” value [15] was “failed to suppress”.
For `C/C=C/Cn1c(SCCCc2ccccc2)nc2c1c(=O)[nH]c(=O)n2C` [Probe 17], the IC50 [16] was 1.54 µM, the “Selectivity for NOD1-dependent over MDP-stimulated (NOD2-dependent) signal transduction” value [17] was > 8 fold and the “Selectivity over non-NOD-stimulated NF-κB pathways” value [18] was “selective”. The “Inhibition of NOD1 (γ-tri-DAP) dependent IL-8 secretion” value [19] was “selectively inhibited IL-8 secretion”, the “Inhibition of NOD2-dependent IL-8 secretion” value [20] was “neither inhibited” and the “Inhibition of TNF-α-dependent IL-8 secretion” value [21] was “neither inhibited”. For the same compound, the “Solubility (in words)” value [7] was “lowest solubility”, the solubility ([7]; aqueous medium, aqueous buffer, pH 5.0, read-out: Aqueous solubility pH 5.0) was 1.5 µM (≈ 0.556 µg/mL) and the solubility [7, 22] was 1.8 µM (≈ 0.667 µg/mL). For the same compound, the solubility ([7]; aqueous medium, pH 7.4, aqueous buffer, read-out: Aqueous solubility pH 7.4) was 1.7 µM (≈ 0.63 µg/mL), the “PAMPA Pe, donor pH 5.0” value [8] was 1269 10^−6 cm/s and the “PAMPA Pe, donor pH 6.2” value [8] was 1516 10^−6 cm/s. For the same compound, the “PAMPA Pe, donor pH 7.4” value [8] was 1344 10^−6 cm/s, the “Hepatic microsome stability, human (% remaining)” value [9] was 8.8 % remaining and the “Hepatic microsome stability, mouse (% remaining)” value [10] was 0.86 % remaining. The CC50 [11] was > 50 µM.
